Here are results for 36 molecules from paper PMC9050923, “6,N^2-Diaryl-1,3,5-triazine-2,4-diamines: synthesis, antiproliferative activity and 3D-QSAR modeling” (RSC Advances, 2020).

What all share (assay type): cell-based
For data set [1], the system named is SKBR-3. Description: MTT assay, SKBR-3 breast cancer cells. The following applies: 10 μM, 72 h after the treatment, MTT, mean of three independent experiments; for viability at 10 µM: Homo sapiens, SK-BR-3, read-out: Percentage of cell viability SKBR-3. On the procedure: (§1) The prepared compounds 1–126 were tested on three breast cancer cell lines namely, MDA-MB231, SKBR-3 and MCF-7 using MTT assay. SKBR-3 and MCF-7 cell lines are estrogen and progesterone hormone positive cell lines often used as a model for the hormone therapy.[18] MDA-MB231 is triple negative breast cancer cell line, which is negative to estrogen and progesterone receptors and human epidermal growth factor receptor 2, a perfect model for chemotherapy.[18] Initially, all the prepared compounds 1–126 were tested on these three cancer cell lines at the screening concentration (10 μM) and percentage of cell viability was calculated 72 h after the treatment (Table 1).
(§2) The growth inhibitory effect of the compounds was determined on breast tumor cell line (MDA-MB231, SKBR-3 and MCF-7) at different concentrations with methotrexate and nilotinib as positive controls (Table 2).
(§3) The cytotoxic activity of 6,N^2-diaryl-1,3,5-triazine-2,4-diamines (1–126) was evaluated against three breast carcinoma cell lines (MDA-MB231, SKBR-3, and MCF-7) and normal breast cell line (MCF-10A) by MTT assay.[22] All cells were obtained from the American Type Culture Collection and were grown in 10% fetal bovine serum and 1% pen-strep antibiotic supplemented media (DMEM for MDA-MB231 and SKBR-3, RPMI for MCF-7, and MEGM for MCF-10A). For MTT assay, 20 000 to 75 000 cells per mL (based on the doubling time for each cell line) were seeded in 96 well plates and incubated for 24 h at 37 °C in 5% CO2 incubator. Then, compounds at different concentrations were added followed by the incubation at 37 °C for 72 h. After that, MTT solution (0.5 mg mL^−1) was added and the plates were incubated for another 4 h. The supernatant was then discarded and 100 μL of DMSO was added to each well. The plates were then read by Tecan NanoQuant (model: infinite m200 pro) plate reader and absorbance was measured at 570 nm. GI50 values were calculated using sigmoidal concentration–response curves (see ESI ^†) generated using the GraphPad Prism 7 program. Three independent experiments were carried out and the data were represented as mean of the three experiments.
For orientation: Tetrazolium dyes change colour on reduction, which living cells bring about.

Data set [2] relates to MCF-7. In words: MTT assay, MCF-7 breast cancer cells. The following applies: 72 h after the treatment, mean of three independent experiments; for viability at 10 µM: Homo sapiens, MCF7, 10 μM, read-out: Percentage of cell viability MCF-7. On the procedure: as §1, §2, §3
The test system of data set [3] is MDA-MB231. In words: MTT assay, MDA-MB231 breast cancer cells. As to conditions: 10 μM, 72 h after the treatment, MTT, mean of three independent experiments; for viability at 10 µM: Homo sapiens, MDA-MB-231, read-out: Percentage of cell viability MDA-MB231. On the procedure: as §1, §2, §3

Consider `COc1ccc(-c2nc(N)nc(Nc3ccc(Br)cc3)n2)cc1` [Compound 76], for which the viability – broadly, the share of living cells, or the viability signal relative to a control – at 10 µM in data set [1] came out at 100%; in data set [2], 91%; in data set [3], 96%.
The corresponding values for `COc1ccc(-c2nc(N)nc(Nc3ccc(OC(F)(F)F)cc3)n2)cc1` [Compound 79] are 84%, 95% and 74%.
In the case of `COc1ccc(-c2nc(N)nc(Nc3ccc(C(C)C)cc3)n2)cc1` [Compound 80], the viability at 10 µM in data set [1] was found to be 86%; in data set [2], 100%; in data set [3], 92%.
The corresponding values for `Nc1nc(Nc2ccccc2)nc(-c2ccc(C(F)(F)F)cc2)n1` [Compound 82] are 97%, 96% and 55%.
In the case of `Nc1nc(Nc2ccccc2F)nc(-c2ccc(C(F)(F)F)cc2)n1` [Compound 83], the viability at 10 µM was 71% in data set [1], 93% in data set [2] and 55% in data set [3].
The corresponding values for `Nc1nc(Nc2ccc(Cl)cc2)nc(-c2ccc(C(F)(F)F)cc2)n1` [Compound 85] are 77%, 99% and 90%.
In the case of `Cc1ccc(Nc2nc(N)nc(-c3ccc(C(F)(F)F)cc3)n2)cc1` [Compound 86], the viability at 10 µM stood at 95% in data set [1], 83% in data set [2] and 54% in data set [3].
Take `COc1ccccc1Nc1nc(N)nc(-c2ccc(C(F)(F)F)cc2)n1` [Compound 87]: the viability at 10 µM came to 85% in data set [1], 100% in data set [2] and 63% in data set [3].
With `COc1ccc(Nc2nc(N)nc(-c3ccc(C(F)(F)F)cc3)n2)cc1` [Compound 88], the results for the viability at 10 µM in data set [1], in data set [2] and in data set [3] were 86%, 100% and 81%, respectively.
The corresponding values for `Nc1nc(Nc2ccccc2)nc(-c2ccc(OC(F)(F)F)cc2)n1` [Compound 89] are 90%, 95% and 59%.
The corresponding values for `Nc1nc(Nc2ccccc2F)nc(-c2ccc(OC(F)(F)F)cc2)n1` [Compound 90] are 80%, 90% and 60%.
For `Nc1nc(Nc2ccccc2Cl)nc(-c2ccc(OC(F)(F)F)cc2)n1` [Compound 92], the viability at 10 µM was found to be 86% in data set [1], 96% in data set [2] and 74% in data set [3].
Turning to `Nc1nc(Nc2ccc(Br)cc2)nc(-c2ccc(OC(F)(F)F)cc2)n1` [Compound 93], the viability at 10 µM in data set [1] worked out at 96%; in data set [2], 90%; in data set [3], 83%.
As for `Cc1ccc(Nc2nc(N)nc(-c3ccc(OC(F)(F)F)cc3)n2)cc1` [Compound 94], the figures for the viability at 10 µM in data set [1], in data set [2] and in data set [3] were 87%, 97% and 79%, respectively.
Turning to `COc1ccc(Nc2nc(N)nc(-c3ccc(OC(F)(F)F)cc3)n2)cc1` [Compound 96], the viability at 10 µM worked out at 88% in data set [1], 87% in data set [2] and 69% in data set [3].
The matching figures for `Nc1nc(Nc2ccc(OC(F)(F)F)cc2)nc(-c2ccc(OC(F)(F)F)cc2)n1` [Compound 97]: 80%, 100% and 92%.
As for `CC(C)c1ccc(Nc2nc(N)nc(-c3ccc(OC(F)(F)F)cc3)n2)cc1` [Compound 98], the viability at 10 µM in data set [1] is 90%; in data set [2], 95%; in data set [3], 100%.
The corresponding values for `CC(C)c1ccc(Nc2nc(N)nc(-c3ccc(N(C)C)cc3)n2)cc1` [Compound 104] are 87%, 100% and 70%.
The corresponding values for `CC(C)(C)c1ccc(-c2nc(N)nc(Nc3ccccc3)n2)cc1` [Compound 105] are 100%, 96% and 74%.
For `CC(C)(C)c1ccc(-c2nc(N)nc(Nc3ccc(F)cc3)n2)cc1` [Compound 106], the viability at 10 µM in data set [1] was 84%; in data set [2], 88%; in data set [3], 97%.
Take `CC(C)(C)c1ccc(-c2nc(N)nc(Nc3ccc(Cl)cc3)n2)cc1` [Compound 107]: the viability at 10 µM was 92% in data set [1], 98% in data set [2] and 100% in data set [3].
Regarding `CC(C)(C)c1ccc(-c2nc(N)nc(Nc3ccc(Br)cc3)n2)cc1` [Compound 108], the values for the viability at 10 µM in data set [1], in data set [2] and in data set [3] were 98%, 99% and 59%, respectively.
As to `COc1ccc(Nc2nc(N)nc(-c3ccc(C(C)(C)C)cc3)n2)cc1` [Compound 109], the viability at 10 µM in data set [1] amounted to 85%; in data set [2], 93%; in data set [3] it was 91%.
For the molecule `Nc1nc(Nc2ccc(Br)cc2)nc(-c2ccc(OCc3ccccc3)cc2)n1` [Compound 112], the viability at 10 µM in data set [1] was found to be 93%; in data set [2], 97%; in data set [3] it was 82%.
On to `Cc1ccc(Nc2nc(N)nc(-c3ccc(OCc4ccccc4)cc3)n2)cc1` [Compound 113], for which the values for the viability at 10 µM in data set [1], in data set [2] and in data set [3] were 94%, 100% and 82%, respectively.
The corresponding values for `Nc1nc(Nc2ccc(OC(F)(F)F)cc2)nc(-c2ccc(OCc3ccccc3)cc2)n1` [Compound 114] are 87%, 100% and 71%.
Consider `Nc1nc(Nc2ccccc2)nc(-c2cccs2)n1` [Compound 115], for which the figures for the viability at 10 µM in data set [1], in data set [2] and in data set [3] were 87%, 91% and 100%, respectively.
`Nc1nc(Nc2ccccc2F)nc(-c2cccs2)n1` [Compound 116, N ^2-(2-Fluorophenyl)-6-(thiophen-2-yl)-1,3,5-triazine-2,4-diamine]: the viability at 10 µM in data set [1] came to 78%; in data set [2] it was 90%; in data set [3] it was 98%.
The corresponding values for `Nc1nc(Nc2ccc(F)cc2)nc(-c2cccs2)n1` [Compound 117] are 86%, 92% and 100%.
For the molecule `Nc1nc(Nc2ccccc2Cl)nc(-c2cccs2)n1` [Compound 118], the viability at 10 µM in data set [1] came out at 78%; in data set [2], 91%; in data set [3], 100%.
Consider `Nc1nc(Nc2ccc(Cl)cc2)nc(-c2cccs2)n1` [Compound 119], for which the values for the viability at 10 µM in data set [1], in data set [2] and in data set [3] were 89%, 98% and 100%, respectively.
For `COc1ccc(Nc2nc(N)nc(-c3cccs3)n2)cc1` [Compound 123, N ^2-(4-Methoxyphenyl)-6-(thiophen-2-yl)-1,3,5-triazine-2,4-diamine], the viability at 10 µM in data set [1] came to 88%; in data set [2] it was 80%; in data set [3], 93%.
Consider `Nc1nc(Nc2ccc(OC(F)(F)F)cc2)nc(-c2cccs2)n1` [Compound 124], for which the viability at 10 µM in data set [1] worked out at 86%; in data set [2], 85%; in data set [3], 100%.
The matching figures for `CC(C)c1ccc(Nc2nc(N)nc(-c3cccs3)n2)cc1` [Compound 125]: 86%, 89% and 100%.
With `Nc1nc(Nc2cccnc2)nc(-c2cccs2)n1` [Compound 126], the viability at 10 µM was determined as 91% in data set [1], 86% in data set [2] and 100% in data set [3].
For “N ^2-(4-Methoxyphenyl)-6-(4-methylphenyl)-1,3,5-triazine-2,4-diamine [Compound 65]”, the “Percentage of cell viability SKBR-3” value in data set [1] was determined as 88%. Moreover, the “Percentage of cell viability MCF-7” value in data set [2] (10 μM) amounted to 87%. Further, in data set [3], the “Percentage of cell viability MDA-MB231” value was 97%.
